# Test results: the supplement of paper PMC12463676, “Small-molecule dissolution of stress granules by redox modulation benefits ALS models” (Nature Chemical Biology, 2025)
# Compound: O=[As]([O-])(O)O.[K+] [potassium arsenate]
# Test: thermal stability z-score vs DMSO; higher = more thermally stabilized by treatment
# Details: HeLa; arsenate concentration 1 mM
# Procedure: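 Cellular thermal proteome profiling in HeLa cells treated with 1 mM arsenate for 1 h (DMSO pretreatment), heated to ten temperatures (37-66.3 °C). Soluble protein was quantified by TMT mass spectrometry relative to DMSO controls; the thermal stability score was transformed to a z-score; mean of n = 3 experiments.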
# 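Note: each temperature applied for 3 min, abundance score taken as mean log2 fold change at the two lowest temperatures, z-score obtained by mean subtraction and division by SD.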
# Sequence of UniProt Q05519 (Q05519 whole entry): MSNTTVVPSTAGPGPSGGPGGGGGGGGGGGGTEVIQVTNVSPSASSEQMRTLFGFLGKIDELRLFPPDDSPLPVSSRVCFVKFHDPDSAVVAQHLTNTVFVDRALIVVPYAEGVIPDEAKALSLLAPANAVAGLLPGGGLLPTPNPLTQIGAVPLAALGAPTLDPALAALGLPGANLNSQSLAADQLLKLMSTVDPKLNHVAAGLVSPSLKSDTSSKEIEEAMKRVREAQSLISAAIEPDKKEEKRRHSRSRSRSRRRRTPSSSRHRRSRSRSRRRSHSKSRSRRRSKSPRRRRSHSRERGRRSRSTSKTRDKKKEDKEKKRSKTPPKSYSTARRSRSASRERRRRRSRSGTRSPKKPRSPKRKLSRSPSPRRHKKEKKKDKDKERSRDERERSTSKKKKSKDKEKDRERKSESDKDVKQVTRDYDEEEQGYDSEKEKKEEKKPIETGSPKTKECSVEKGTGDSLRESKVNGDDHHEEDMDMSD
# Sequence of UniProt P15291 (P15291 whole entry): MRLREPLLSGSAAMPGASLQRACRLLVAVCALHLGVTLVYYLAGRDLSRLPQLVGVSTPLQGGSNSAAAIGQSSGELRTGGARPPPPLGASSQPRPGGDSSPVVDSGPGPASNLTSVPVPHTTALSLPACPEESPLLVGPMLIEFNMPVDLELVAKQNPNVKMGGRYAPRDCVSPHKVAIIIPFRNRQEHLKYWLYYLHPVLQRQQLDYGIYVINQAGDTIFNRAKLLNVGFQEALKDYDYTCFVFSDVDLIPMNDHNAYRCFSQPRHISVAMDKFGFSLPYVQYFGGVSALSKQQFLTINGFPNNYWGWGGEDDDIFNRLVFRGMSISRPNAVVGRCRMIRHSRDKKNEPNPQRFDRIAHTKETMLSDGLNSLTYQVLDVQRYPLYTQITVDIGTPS
# Sequence of UniProt Q9H6Z4 (Q9H6Z4 whole entry): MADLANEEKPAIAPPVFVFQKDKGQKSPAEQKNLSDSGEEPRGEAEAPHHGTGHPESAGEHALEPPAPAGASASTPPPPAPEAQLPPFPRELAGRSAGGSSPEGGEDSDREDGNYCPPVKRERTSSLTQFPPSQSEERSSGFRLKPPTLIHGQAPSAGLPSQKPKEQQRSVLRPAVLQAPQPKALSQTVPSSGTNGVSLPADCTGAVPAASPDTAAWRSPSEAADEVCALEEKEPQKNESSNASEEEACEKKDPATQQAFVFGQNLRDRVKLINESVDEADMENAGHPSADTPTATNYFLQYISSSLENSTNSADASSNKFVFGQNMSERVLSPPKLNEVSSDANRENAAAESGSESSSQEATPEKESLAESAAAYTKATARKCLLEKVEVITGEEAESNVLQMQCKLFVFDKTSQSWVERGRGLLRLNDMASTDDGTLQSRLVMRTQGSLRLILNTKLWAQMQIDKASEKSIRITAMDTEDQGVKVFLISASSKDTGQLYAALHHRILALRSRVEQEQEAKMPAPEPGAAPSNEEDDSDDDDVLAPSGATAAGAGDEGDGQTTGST
# Sequence of UniProt Q14165 (Q14165 whole entry): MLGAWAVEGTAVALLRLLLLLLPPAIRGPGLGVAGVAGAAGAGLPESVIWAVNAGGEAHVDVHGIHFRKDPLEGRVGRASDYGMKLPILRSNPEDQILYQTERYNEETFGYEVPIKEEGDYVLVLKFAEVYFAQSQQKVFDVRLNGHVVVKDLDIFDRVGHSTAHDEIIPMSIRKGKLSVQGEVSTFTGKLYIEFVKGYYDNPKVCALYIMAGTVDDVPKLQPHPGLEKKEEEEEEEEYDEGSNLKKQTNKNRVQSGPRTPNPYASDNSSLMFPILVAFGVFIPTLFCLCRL
# Sequence of UniProt O60825 (O60825 whole entry, looked up): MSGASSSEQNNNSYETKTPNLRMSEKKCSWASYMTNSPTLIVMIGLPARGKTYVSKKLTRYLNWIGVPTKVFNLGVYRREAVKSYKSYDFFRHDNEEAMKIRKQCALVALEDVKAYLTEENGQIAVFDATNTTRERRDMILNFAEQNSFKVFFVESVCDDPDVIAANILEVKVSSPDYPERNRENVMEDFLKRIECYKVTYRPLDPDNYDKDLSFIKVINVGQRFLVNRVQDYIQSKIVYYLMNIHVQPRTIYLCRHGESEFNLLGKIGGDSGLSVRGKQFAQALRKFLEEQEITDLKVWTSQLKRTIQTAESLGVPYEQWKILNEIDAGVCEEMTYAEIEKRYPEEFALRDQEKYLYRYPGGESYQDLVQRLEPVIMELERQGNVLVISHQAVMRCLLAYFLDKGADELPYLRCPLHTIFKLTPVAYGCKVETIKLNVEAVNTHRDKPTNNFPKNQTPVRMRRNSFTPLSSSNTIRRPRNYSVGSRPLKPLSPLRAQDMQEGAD
# Sequence of UniProt Q8WV41 (Q8WV41 whole entry): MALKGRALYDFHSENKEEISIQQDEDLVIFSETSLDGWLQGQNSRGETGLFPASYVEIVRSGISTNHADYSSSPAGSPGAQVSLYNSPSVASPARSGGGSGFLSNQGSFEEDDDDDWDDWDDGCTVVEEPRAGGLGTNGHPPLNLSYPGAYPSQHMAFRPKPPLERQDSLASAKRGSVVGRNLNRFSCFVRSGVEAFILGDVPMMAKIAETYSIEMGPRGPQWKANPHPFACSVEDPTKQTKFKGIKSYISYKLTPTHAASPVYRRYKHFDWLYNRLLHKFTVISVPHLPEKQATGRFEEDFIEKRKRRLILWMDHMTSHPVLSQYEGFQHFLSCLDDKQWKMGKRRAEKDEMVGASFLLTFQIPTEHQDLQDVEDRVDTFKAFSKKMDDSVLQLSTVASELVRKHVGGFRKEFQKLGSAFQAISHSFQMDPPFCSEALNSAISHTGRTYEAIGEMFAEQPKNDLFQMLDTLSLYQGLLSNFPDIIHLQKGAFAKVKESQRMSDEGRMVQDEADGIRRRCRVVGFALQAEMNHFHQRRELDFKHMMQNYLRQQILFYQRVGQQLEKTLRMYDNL
# Sequence of UniProt P15151 (P15151 whole entry): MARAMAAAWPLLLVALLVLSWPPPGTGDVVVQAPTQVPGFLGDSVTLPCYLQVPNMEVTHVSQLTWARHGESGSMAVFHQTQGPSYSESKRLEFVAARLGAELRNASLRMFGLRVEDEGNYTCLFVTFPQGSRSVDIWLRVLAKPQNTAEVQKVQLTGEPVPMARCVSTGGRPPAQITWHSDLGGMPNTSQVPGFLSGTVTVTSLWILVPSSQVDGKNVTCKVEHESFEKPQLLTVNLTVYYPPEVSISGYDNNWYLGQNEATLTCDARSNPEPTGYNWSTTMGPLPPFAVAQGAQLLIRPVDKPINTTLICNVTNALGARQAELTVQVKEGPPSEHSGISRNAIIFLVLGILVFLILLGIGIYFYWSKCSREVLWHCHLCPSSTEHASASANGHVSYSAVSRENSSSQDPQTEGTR
# Sequence of UniProt Q9Y3X0 (Q9Y3X0 whole entry): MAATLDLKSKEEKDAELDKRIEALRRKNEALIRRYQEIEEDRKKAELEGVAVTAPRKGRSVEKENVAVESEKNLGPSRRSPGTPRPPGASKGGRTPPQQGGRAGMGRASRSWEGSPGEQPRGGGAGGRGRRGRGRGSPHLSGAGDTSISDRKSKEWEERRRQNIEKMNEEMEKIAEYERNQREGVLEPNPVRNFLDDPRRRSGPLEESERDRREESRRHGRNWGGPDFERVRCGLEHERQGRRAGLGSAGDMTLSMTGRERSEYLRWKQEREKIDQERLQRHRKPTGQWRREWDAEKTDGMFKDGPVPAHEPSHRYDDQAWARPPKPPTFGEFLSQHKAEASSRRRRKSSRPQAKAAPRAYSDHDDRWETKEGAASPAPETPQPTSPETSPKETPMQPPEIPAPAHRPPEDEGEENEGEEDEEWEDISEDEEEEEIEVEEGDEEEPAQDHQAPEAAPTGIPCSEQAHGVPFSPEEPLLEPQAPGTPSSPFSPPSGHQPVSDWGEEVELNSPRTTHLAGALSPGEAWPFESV
# Sequence of UniProt Q96MX6 (Q96MX6 whole entry): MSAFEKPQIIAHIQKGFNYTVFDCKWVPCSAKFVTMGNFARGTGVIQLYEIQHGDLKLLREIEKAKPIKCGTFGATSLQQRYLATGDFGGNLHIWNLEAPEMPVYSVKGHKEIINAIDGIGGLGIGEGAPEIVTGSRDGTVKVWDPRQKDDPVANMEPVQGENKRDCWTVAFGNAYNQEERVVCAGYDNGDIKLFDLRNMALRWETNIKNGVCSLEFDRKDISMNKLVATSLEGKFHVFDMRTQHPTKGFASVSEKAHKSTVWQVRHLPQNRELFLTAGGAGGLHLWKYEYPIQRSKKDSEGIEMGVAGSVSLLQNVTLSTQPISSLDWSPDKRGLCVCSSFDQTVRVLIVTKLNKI
# Sequence of UniProt Q9Y289 (Q9Y289 whole entry): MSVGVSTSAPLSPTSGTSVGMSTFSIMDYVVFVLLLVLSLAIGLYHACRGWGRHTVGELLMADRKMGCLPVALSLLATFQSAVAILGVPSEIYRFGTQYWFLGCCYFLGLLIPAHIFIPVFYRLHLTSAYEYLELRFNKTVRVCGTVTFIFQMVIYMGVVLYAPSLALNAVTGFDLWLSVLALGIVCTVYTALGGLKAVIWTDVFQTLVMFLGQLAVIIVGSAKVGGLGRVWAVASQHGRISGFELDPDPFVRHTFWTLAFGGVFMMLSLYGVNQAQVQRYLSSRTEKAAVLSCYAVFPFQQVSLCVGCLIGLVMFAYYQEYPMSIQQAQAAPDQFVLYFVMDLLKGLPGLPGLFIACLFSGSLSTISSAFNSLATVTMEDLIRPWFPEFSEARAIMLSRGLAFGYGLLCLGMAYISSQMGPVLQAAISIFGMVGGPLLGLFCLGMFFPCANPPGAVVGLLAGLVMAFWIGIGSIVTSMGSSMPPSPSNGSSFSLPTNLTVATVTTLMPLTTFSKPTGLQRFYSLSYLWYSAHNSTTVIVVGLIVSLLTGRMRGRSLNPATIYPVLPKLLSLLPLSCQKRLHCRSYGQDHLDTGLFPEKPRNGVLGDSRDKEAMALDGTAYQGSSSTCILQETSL
# Sequence of UniProt P61081 (P61081 whole entry): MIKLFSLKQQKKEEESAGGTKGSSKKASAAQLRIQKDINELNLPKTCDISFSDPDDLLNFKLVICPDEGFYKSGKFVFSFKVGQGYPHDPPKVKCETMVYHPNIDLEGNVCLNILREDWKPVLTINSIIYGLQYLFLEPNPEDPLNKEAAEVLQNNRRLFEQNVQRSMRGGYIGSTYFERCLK
row,Target,thermal stability z-score
1,WDR92 (UniProt Q96MX6),0.368
2,URI1 (UniProt O94763),0.52
3,SRSF11 (UniProt Q05519),0.0211
4,ACTR2 (UniProt P61160),-0.487
5,KCTD1 (UniProt Q719H9),-1.07
6,MRPL53 (UniProt Q96EL3),0.0397
7,GLMP (UniProt Q8WWB7),3.11
8,RAVER2 (UniProt Q9HCJ3),-0.0887
9,SNX33 (UniProt Q8WV41),-0.148
10,SSRP1 (UniProt Q08945),1.4
11,MLEC (UniProt Q14165),0.385
12,STX12 (UniProt Q86Y82),0.452
13,SLC25A35 (UniProt Q3KQZ1),0.172
14,FLII (UniProt Q13045),0.68
15,TGFBRAP1 (UniProt Q8WUH2),-0.0443
16,IFI35 (UniProt P80217),2.08
17,KLC2 (UniProt Q9H0B6),0.557
18,ATP13A1 (UniProt Q9HD20),-0.277
19,ARFGEF2 (UniProt Q9Y6D5),0.0926
20,TFIP11 (UniProt Q9UBB9),-0.187
21,PVR (UniProt P15151),0.0637
22,BAT3|BAG6,0.518
23,AURKA (UniProt O14965),-0.391
24,ARHGAP35 (UniProt Q9NRY4),0.128
25,PFKFB2 (UniProt O60825),-0.631
26,TGOLN2 (UniProt O43493),-0.275
27,PRCP (UniProt P42785),0.42
28,DSTN (UniProt P60981),-1.22

row,Target,thermal stability z-score
1,DTL (UniProt Q9NZJ0),-0.408
2,SNAPC5 (UniProt O75971),0.158
3,UBE2M (UniProt P61081),-0.416
4,CCT2 (UniProt P78371),-0.0294
5,MYH10 (UniProt P35580),0.375
6,UTP20 (UniProt O75691),-0.134
7,ZC3H18 (UniProt Q86VM9),-1.11
8,AGAP3 (UniProt Q96P47),-0.25
9,DCAF12 (UniProt Q5T6F0),0.154
10,CCDC9 (UniProt Q9Y3X0),-0.162
11,PPIF (UniProt P30405),0.0382
12,APOOL (UniProt Q6UXV4),0.748
13,B4GALT1 (UniProt P15291),0.0478
14,CLPP (UniProt Q16740),0.151
15,RANBP3 (UniProt Q9H6Z4),-0.0109
16,COL5A2 (UniProt P05997),1.12
17,RAB3GAP1 (UniProt Q15042),0.764
18,GRB2 (UniProt P62993),0.0852
19,SNX16 (UniProt P57768),-0.741
20,BRCC3 (UniProt P46736),0.468
21,SLC5A6 (UniProt Q9Y289),0.342
22,SMG7 (UniProt Q92540),-0.0408
23,NUDCD1 (UniProt Q96RS6),-0.0861
24,TAPBP (UniProt O15533),0.709
25,SCP2 (UniProt P22307),-0.257
26,SLC22A18 (UniProt Q96BI1),-0.0251
27,MPG (UniProt P29372),0.572

# Compound: NC(=O)CCCCC1CCSS1 [lipoamide]
# Test: as above
# Details: HeLa; lipoamide concentration 100 µM; arsenate co-treatment: 1 mM arsenate 1 h
# Procedure: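 Cellular thermal proteome profiling in HeLa cells. Cells were treated with 100 µM lipoamide for 1 h, with or without 1 mM arsenate for a further 1 h, then heated to ten temperatures (37-66.3 °C), and soluble protein was quantified by TMT mass spectrometry relative to 0.1% DMSO controls. The thermal stability score (sum of log2 fold changes minus the abundance score) was transformed to a z-score; mean of n = 3 experiments.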
row,Target,thermal stability z-score
1,WDR92 (UniProt Q96MX6),-0.0904
2,URI1 (UniProt O94763),-0.325
3,SRSF11 (UniProt Q05519),0.00966
4,ACTR2 (UniProt P61160),-0.116
5,KCTD1 (UniProt Q719H9),1.16
6,MRPL53 (UniProt Q96EL3),0.75
7,GLMP (UniProt Q8WWB7),2.79
8,RAVER2 (UniProt Q9HCJ3),0.204
9,SNX33 (UniProt Q8WV41),-0.136
10,SSRP1 (UniProt Q08945),1.24
11,MLEC (UniProt Q14165),-3.66
12,STX12 (UniProt Q86Y82),0.379
13,SLC25A35 (UniProt Q3KQZ1),0.135
14,FLII (UniProt Q13045),-0.35
15,TGFBRAP1 (UniProt Q8WUH2),0.0561
16,IFI35 (UniProt P80217),1.36
17,KLC2 (UniProt Q9H0B6),-0.0443
18,ATP13A1 (UniProt Q9HD20),-0.0204
19,ARFGEF2 (UniProt Q9Y6D5),-0.376
20,TFIP11 (UniProt Q9UBB9),-0.0949
21,PVR (UniProt P15151),-0.158
22,BAT3|BAG6,-0.102
23,AURKA (UniProt O14965),-0.091
24,ARHGAP35 (UniProt Q9NRY4),-0.512
25,PFKFB2 (UniProt O60825),0.137
26,TGOLN2 (UniProt O43493),0.152
27,PRCP (UniProt P42785),-0.242
28,DSTN (UniProt P60981),0.471

row,Target,thermal stability z-score
1,DTL (UniProt Q9NZJ0),-0.0028
2,SNAPC5 (UniProt O75971),-0.0463
3,UBE2M (UniProt P61081),0.533
4,CCT2 (UniProt P78371),0.119
5,MYH10 (UniProt P35580),0.273
6,UTP20 (UniProt O75691),-0.113
7,ZC3H18 (UniProt Q86VM9),1.11
8,AGAP3 (UniProt Q96P47),0.0887
9,DCAF12 (UniProt Q5T6F0),0.118
10,CCDC9 (UniProt Q9Y3X0),1.57
11,PPIF (UniProt P30405),0.26
12,APOOL (UniProt Q6UXV4),0.908
13,B4GALT1 (UniProt P15291),-0.454
14,CLPP (UniProt Q16740),0.049
15,RANBP3 (UniProt Q9H6Z4),-0.326
16,COL5A2 (UniProt P05997),-3.8
17,RAB3GAP1 (UniProt Q15042),-0.562
18,GRB2 (UniProt P62993),0.496
19,SNX16 (UniProt P57768),1.01
20,BRCC3 (UniProt P46736),-0.0792
21,SLC5A6 (UniProt Q9Y289),-0.586
22,SMG7 (UniProt Q92540),-0.0753
23,NUDCD1 (UniProt Q96RS6),-0.287
24,TAPBP (UniProt O15533),-3.75
25,SCP2 (UniProt P22307),0.374
26,SLC22A18 (UniProt Q96BI1),0.00763
27,MPG (UniProt P29372),0.128

# Same assay, conditions: HeLa; lipoamide concentration 100 µM; arsenate co-treatment: none
row,Target,thermal stability z-score
1,WDR92 (UniProt Q96MX6),-0.202
2,URI1 (UniProt O94763),-0.193
3,SRSF11 (UniProt Q05519),0.41
4,ACTR2 (UniProt P61160),-0.175
5,KCTD1 (UniProt Q719H9),0.0871
6,MRPL53 (UniProt Q96EL3),-0.432
7,GLMP (UniProt Q8WWB7),3.71
8,RAVER2 (UniProt Q9HCJ3),0.253
9,SNX33 (UniProt Q8WV41),0.0586
10,SSRP1 (UniProt Q08945),2.15
11,MLEC (UniProt Q14165),-2.94
12,STX12 (UniProt Q86Y82),0.716
13,SLC25A35 (UniProt Q3KQZ1),-0.276
14,FLII (UniProt Q13045),0.0176
15,TGFBRAP1 (UniProt Q8WUH2),-0.0483
16,IFI35 (UniProt P80217),0.774
17,KLC2 (UniProt Q9H0B6),0.117
18,ATP13A1 (UniProt Q9HD20),0.186
19,ARFGEF2 (UniProt Q9Y6D5),-0.0733
20,TFIP11 (UniProt Q9UBB9),-0.0621
21,PVR (UniProt P15151),-0.0762
22,BAT3|BAG6,-0.0326
23,AURKA (UniProt O14965),-0.269
24,ARHGAP35 (UniProt Q9NRY4),-0.145
25,PFKFB2 (UniProt O60825),0.1
26,TGOLN2 (UniProt O43493),0.0237
27,PRCP (UniProt P42785),-0.33
28,DSTN (UniProt P60981),0.0123

row,Target,thermal stability z-score
1,DTL (UniProt Q9NZJ0),-0.0193
2,SNAPC5 (UniProt O75971),0.216
3,UBE2M (UniProt P61081),0.463
4,CCT2 (UniProt P78371),-0.107
5,MYH10 (UniProt P35580),0.19
6,UTP20 (UniProt O75691),-0.168
7,ZC3H18 (UniProt Q86VM9),0.987
8,AGAP3 (UniProt Q96P47),-0.377
9,DCAF12 (UniProt Q5T6F0),0.0205
10,CCDC9 (UniProt Q9Y3X0),1.4
11,PPIF (UniProt P30405),0.29
12,APOOL (UniProt Q6UXV4),0.782
13,B4GALT1 (UniProt P15291),-0.565
14,CLPP (UniProt Q16740),-0.299
15,RANBP3 (UniProt Q9H6Z4),0.21
16,COL5A2 (UniProt P05997),-3.3
17,RAB3GAP1 (UniProt Q15042),-0.113
18,GRB2 (UniProt P62993),0.364
19,SNX16 (UniProt P57768),-0.515
20,BRCC3 (UniProt P46736),0.172
21,SLC5A6 (UniProt Q9Y289),-0.512
22,SMG7 (UniProt Q92540),-0.0219
23,NUDCD1 (UniProt Q96RS6),-0.282
24,TAPBP (UniProt O15533),-2.54
25,SCP2 (UniProt P22307),0.0992
26,SLC22A18 (UniProt Q96BI1),-0.34
27,MPG (UniProt P29372),0.378
